Legend:
dTAG-HA SLCs = experiment: dTAG-driven SLC degradation, statements across SLCs (temporal control, chemical rescue); type: cell-based, human; conditions: dTAG-tagged SLCs; FIGS. 5E and F
Experimental: (D)Chemical “rescue” of dTAG-driven degradation of SLCs. HAP1 cell lines expressing dTAG-HA SLC1A5 or dTAG-HA SLC38A9 were treated with 0.5 µM dTAG7 for 12 or 18 hours, respectively. These cells were also treated with chloroquine (CQ, 50 µM), bortezomib (bort., 1 µM), MG-132 (MG, 1 µM), MLN4924 (MLN, 1 µM), pomalidomide (poma., 10 µM), or bafilomycin A1 (bafi., 2.5 µM). SLC degradation was rescued by inhibiting CRL activity or the proteasome, but not by inhibiting the lysosome machinery.
Western blotting with antibodies against the HA-tag and the total protein mirrored the observed pattern.
(D) Chemical “rescue” of dTAG driven degradation. HAP1 cell lines expressing dTAGHA SLC2A3, 39A7, […], and MTCH2 were treated with 0.5 µM dTAG7 for 12 hours. A cell line expressing dTAG-HA SLC38A2 was treated with 0.5 µM dTAG7 for 18 hours. These cells were treated with MLN4924 (MLN, 1 µM), pomalidomide (poma., 10 µM), or bafilomycin A1 (bafi., 2.5 µM) to monitor the inhibition of degradation.
For immunoblotting, whole cell extracts were prepared using RIPA lysis buffer (25 mM Tris/HCl pH 7.6, 150 mM NaCl, 1% NP-40, 1% sodium deoxycholate, 0.1% SDS, EDTA-free protease inhibitor (Roche) and phosphatase inhibitors 2+3 (Sigma- Aldrich)). Cell extracts were incubated for 15 min on ice in 50 µL RIPA buffer. Lysates were cleared by centrifugation (20,000 g, 10 min, 4° C.). Protein extracts were quantified and normalized using the BCA assay (Thermo Scientific). Where indicated, cleared lysates where treated with the enzyme PNGase (NEB) to deglycosylate the proteins. Lämmli Sample Buffer 4x was added to protein extract samples without boiling. Cell lysates were run on SDS-polyacrylamide gel in tris-glycine running buffer and transferred to nitrocellulose membranes Amersham Protran 0.45 µm (GE Healthcare), according to standard methods. The membranes were incubated with the antibodies indicated below and visualized with horseradish peroxidase-conjugated secondary antibodies (described below) using the ECL Western blotting system (Thermo Scientific). The following antibodies were used: GAPDH (Santa Cruz, sc-365062), Actin (Cyoskeleton Inc., #AAN01), HA (Covance, cat #MMS-101R), HA (Cell Signaling, #3724), HA7-HRP (Sigma, H6533), HA (Roche, #11867423001), SLC9A1 (Santa Cruz, sc-136239), SLC2A1 (Cell Signaling, #12939), SLC38A1 (Cell Signaling, #36057). Secondary antibody for imaging goat anti-Rat IgG Alexa Fluor 488 (ThermoFisher, A11006). The following secondary antibodies were used for immunoblotting: goat anti-mouse HRP (115-035-003, Jackson ImmunoResearch) and goat anti-rabbit HRP (111-035-003, Jackson ImmunoResearch).
SLCs were ectopically expressed as fusions to a mutated FKBP domain, also known as the dTAG system. In brief, a dTAGed protein is amenable to degradation by specific chimeric degrader molecules (e.g. dTAG7/dTAG13) that simultaneously bind to the dTAG and the CRL4CRBN E3 ligase, inducing molecular proximity and ensuing degradation by the proteasome. Given that SLCs were expressed in all cellular compartments, the amenability of differentially located SLCs to targeted proteolysis was tested (FIG. 1A, upper graph). Each of the tested SLCs was stably expressed in HAP1 cells, and subcellular localization was assessed by immunofluorescence microscopy (FIG. 1B). In detail, SLCs located at the cell surface (SLC1A5, SLC38A1, SLC2A1, SLC2A3, SLC16A1, SLC4A4, SLC7A3), cell surface and vesicles (SLC38A2), lysosome (SLC38A9), Golgi (SLC35B2, SLC33A1), mitochondria (SLC25A26, SLC25A1, and MTCH2) and endoplasmic reticulum (SLC39A7, SLC30A9) were assayed. Cellular treatment with a specific degrader molecule (dTAG7 or dTAG13) led to identification of SLCs expressed at cell surface, endoplasmic reticulum and lysosome that were amenable to targeted degradation (FIGS. 1C, 5A). The dTAG could be placed on either N- or C-terminus of the SLC, if both face the cytoplasm (FIG. 5B), as exemplified by SLC2A3. […]

dTAG-HA SLC1A5 = biological target: T1, dTAG-HA SLC1A5 (Homo sapiens, UniProt Q15758+Q96SW2); experiment: Targeted degradation of dTAG-tagged SLC1A5 (western blot); type: cell-based; conditions: 0.5 µM
T1 construct: expressed in transfected cells; also LOVO, SW620, CAKI, SW480
Experimental: (C)HAP1 cells expressing dTAG-HA SLC1A5, 2A3, 30A9, 35B2, MTCH2, and 33A1 were treated for 24 hours with 0.5 µM of dTAG7 or dTAG13, as indicated. HAP1 cells expressing dTAG-HA SLC2A1 and 16A1 were treated for 24 hrs with 0.5 µM of dTAG7. HAP1 cell lines expressing dTAG-HA SLC39A7, dTAG-HA SLC4A4, and SLC7A3-dTAG-HA were treated for 48 hrs with 0.5 µM of dTAG13.
SLC1A5, SLC2A1, SLC2A3, SLC16A1, SLC38A1, SLC38A2 were obtained as gateway-compatible pENTR/pDONR vectors from the Harvard PlasmID Repository. SLC39A7 was obtained from Dharmacon, GE Healthcare. The following vectors were synthesized by Genescript: SLC4A4, SLC7A3, SLC38A9, SLC25A1, SLC9A1, SLC9A2, SLC9A3, SLC9A4, SLC9A5, SLC9A6, SLC9A7, SLC9A8, and SLC9B2. […]
For immunoblotting, whole cell extracts were prepared using RIPA lysis buffer (25 mM Tris/HCl pH 7.6, 150 mM NaCl, 1% NP-40, 1% sodium deoxycholate, 0.1% SDS, EDTA-free protease inhibitor (Roche) and phosphatase inhibitors 2+3 (Sigma- Aldrich)). […] Protein extracts were quantified and normalized using the BCA assay (Thermo Scientific). […]
SLCs were ectopically expressed as fusions to a mutated FKBP domain, also known as the dTAG system. […]

T1 sequence (Q15758 with tags, fused parts or gaps): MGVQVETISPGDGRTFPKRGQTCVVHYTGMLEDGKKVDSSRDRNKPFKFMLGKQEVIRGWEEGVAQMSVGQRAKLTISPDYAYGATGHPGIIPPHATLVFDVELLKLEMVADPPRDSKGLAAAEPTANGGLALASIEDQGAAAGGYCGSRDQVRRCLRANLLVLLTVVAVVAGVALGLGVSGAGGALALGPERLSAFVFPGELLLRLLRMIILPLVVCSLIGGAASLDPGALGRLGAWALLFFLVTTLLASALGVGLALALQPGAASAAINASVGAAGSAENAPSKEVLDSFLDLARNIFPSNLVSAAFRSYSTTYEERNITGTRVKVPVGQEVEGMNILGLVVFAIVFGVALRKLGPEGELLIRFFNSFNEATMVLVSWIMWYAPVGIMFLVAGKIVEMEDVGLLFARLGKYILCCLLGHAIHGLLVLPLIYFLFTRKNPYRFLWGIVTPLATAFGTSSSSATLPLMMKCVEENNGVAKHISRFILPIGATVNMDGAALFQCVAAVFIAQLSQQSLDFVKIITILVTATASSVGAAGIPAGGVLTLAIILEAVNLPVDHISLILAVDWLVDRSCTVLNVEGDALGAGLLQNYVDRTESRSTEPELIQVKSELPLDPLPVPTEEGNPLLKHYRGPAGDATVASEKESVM
T1 sequence (Q96SW2 whole entry): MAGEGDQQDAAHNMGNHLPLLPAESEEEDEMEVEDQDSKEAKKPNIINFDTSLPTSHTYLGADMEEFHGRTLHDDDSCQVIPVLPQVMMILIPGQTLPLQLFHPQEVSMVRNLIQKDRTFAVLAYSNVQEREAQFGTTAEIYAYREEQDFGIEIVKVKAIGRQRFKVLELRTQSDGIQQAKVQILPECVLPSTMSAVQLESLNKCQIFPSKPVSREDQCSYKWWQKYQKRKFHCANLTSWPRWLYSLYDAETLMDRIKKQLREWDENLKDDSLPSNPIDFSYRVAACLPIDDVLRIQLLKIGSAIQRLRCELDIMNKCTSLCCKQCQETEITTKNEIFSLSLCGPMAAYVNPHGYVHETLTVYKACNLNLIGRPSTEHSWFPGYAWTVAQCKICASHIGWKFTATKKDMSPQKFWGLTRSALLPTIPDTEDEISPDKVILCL
T1 sequence (Q16531 whole entry partner): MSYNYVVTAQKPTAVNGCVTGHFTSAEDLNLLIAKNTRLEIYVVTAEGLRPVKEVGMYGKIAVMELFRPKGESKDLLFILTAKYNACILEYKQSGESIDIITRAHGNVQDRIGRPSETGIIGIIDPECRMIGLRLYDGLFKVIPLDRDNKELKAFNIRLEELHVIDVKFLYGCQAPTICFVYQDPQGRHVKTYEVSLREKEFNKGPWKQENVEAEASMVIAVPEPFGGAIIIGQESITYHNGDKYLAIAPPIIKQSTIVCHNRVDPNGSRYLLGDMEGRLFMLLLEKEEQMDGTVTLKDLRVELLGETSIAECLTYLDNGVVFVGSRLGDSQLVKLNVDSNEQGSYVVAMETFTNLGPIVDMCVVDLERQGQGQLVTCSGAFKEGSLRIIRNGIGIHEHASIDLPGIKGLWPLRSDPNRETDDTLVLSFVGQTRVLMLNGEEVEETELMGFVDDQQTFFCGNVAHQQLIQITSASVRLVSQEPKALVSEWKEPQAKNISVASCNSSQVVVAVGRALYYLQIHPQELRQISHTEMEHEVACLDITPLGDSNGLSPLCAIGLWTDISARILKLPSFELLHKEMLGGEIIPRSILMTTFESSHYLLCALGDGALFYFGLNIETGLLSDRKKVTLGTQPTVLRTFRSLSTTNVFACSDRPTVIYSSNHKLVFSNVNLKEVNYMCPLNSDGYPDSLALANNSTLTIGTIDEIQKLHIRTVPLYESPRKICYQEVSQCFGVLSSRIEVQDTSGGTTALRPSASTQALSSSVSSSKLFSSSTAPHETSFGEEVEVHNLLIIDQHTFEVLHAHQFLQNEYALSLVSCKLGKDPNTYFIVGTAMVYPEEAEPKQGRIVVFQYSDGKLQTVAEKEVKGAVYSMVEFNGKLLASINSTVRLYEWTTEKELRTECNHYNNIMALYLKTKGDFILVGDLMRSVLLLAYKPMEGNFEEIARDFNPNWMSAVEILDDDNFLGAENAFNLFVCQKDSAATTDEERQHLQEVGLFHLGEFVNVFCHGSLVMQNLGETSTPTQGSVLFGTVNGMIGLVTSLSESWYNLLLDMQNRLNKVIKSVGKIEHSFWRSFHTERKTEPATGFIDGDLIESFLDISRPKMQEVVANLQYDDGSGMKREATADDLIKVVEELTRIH

| Compound | temporal control of targeted SLC degradation (dTAG-HA SLCs) | initiation of degradation (time course) (dTAG-HA SLC1A5; HAP1, dTAG-HA SLC1A5) [h] | time for which target degradation is maintained (dTAG-HA SLCs) | degradation of dTAG-HA SLC1A5 (dTAG-HA SLC1A5; LOVO, SW620, CAKI and SW480 cell lines, 48 hours) |
| --- | --- | --- | --- | --- |
| CC[C@H](C(=O)N1CCCC[C@H]1C(=O)O[C@H](CCc1ccc(OC)c(OC)c1)c1ccccc1OCC(=O)NCCCOCCOCCOCCCNC(=O)COc1cccc2c1C(=O)N(C1CCC(=O)NC1=O)C2=O)c1cc(OC)c(OC)c(OC)c1 (stereo partly shown) [dTAG7] | reversible degradation | ≤ 6 |  |  |
| CC[C@H](C(=O)N1CCCC[C@H]1C(=O)O[C@H](CCc1ccc(OC)c(OC)c1)c1ccccc1OCC(=O)NCCCCCCOc1cccc2c1C(=O)N(C1CCC(=O)NC1=O)C2=O)c1cc(OC)c(OC)c(OC)c1 (stereo partly shown) [dTAG13] |  |  | at least 72 h | degradation was observed |
